Where two headings read alike, the source gives them in different places.
Assays:
Format in all cases: cell-based
[1] = tested on: human MD-MBA-231 breast cancer cells; assay: CellTiter-Blue cell viability, concurrent combination treatment with doxorubicin; details: for 72 Hours IC10 Doxorubicin / 96 Hours IC10 Doxorubicin: concurrent combination with IC10 of Adriamycin (doxorubicin); for 72 Hours IC30 Doxorubicin / 96 Hours IC30 Doxorubicin: concurrent combination with IC30 of Adriamycin (doxorubicin)
Method: (§1) CellTiter-Blue® Reagent Method: Following incubation with test compounds for 72 or 96 hours, human MD-MBA-231 breast cancer cells were briefly washed, […] stained with the CellTiter-Blue® Reagent resazurin. Resazurin measures the metabolic capacity of cells, an indicator of cell viability. Viable cells retain the ability to reduce resazurin into resorufin, that is highly fluorescent. […] This test measures the degree of cytotoxicity caused by the test material. IC50 determination: Data are expressed as the percentage of survival of the untreated (vehicle) control calculated from the fluorescence corrected for background absorbance. The surviving fraction of cells were determined by dividing the mean fluorescence values of the test agents by the mean fluorescence values of untreated control. The inhibitory concentration value for the test agent(s) and control were estimated using Prism 4 software (GraphPad Software, Inc.) by curve-fitting the data using the non-linear regression analysis. In some instances IC50 values could not be extrapolated and these are marked (*). Compounds of the invention were tested as monotherapy and results presented in TABLE 1 Compounds of the invention were tested in combination with inhibitory concentration 30% and 10% (IC30/IC10) of Adriamycin (doxorubicin) and results presented in TABLE 2

[2] = tested on: human MD-MBA-231 breast cancer cells; assay: CellTiter-Blue cell viability, monotherapy
Method: as §1, with “(*).” for “(*). Compounds of the invention were tested as monotherapy and results presented in TABLE 1 Compounds of the invention were tested in combination with inhibitory concentration 30% and 10% (IC30/IC10) of Adriamycin (doxorubicin) and results presented in TABLE 2”

[3] = tested on: human MD-MBA-231 breast cancer cells; assay: CellTiter-Blue cell viability, 6-hour pretreatment before doxorubicin administration; details: for 72 Hours IC10 Doxorubicin / 96 Hours IC10 Doxorubicin: 6-hour pretreatment with compound before IC10 doxorubicin; for 72 Hours IC30 Doxorubicin / 96 Hours IC30 Doxorubicin: 6-hour pretreatment with compound before IC30 doxorubicin
Method: as §1, with “(doxorubicin) following 6 hours of pretreatment with example compounds” for “(doxorubicin)”, “TABLE 3” for “TABLE 2”

[4] = 72 hours incubation, read-out: 72 Hours Treatment IC50
[5] = 96 hours incubation, read-out: 96 Hours Treatment IC50

SMILES	72 Hours IC10 Doxorubicin [1]	96 Hours IC10 Doxorubicin [1]	72 Hours IC30 Doxorubicin [1]	96 Hours IC30 Doxorubicin [1]	IC50 [2, 4]	IC50 [2, 5]	72 Hours IC10 Doxorubicin [3]	96 Hours IC10 Doxorubicin [3]	72 Hours IC30 Doxorubicin [3]	96 Hours IC30 Doxorubicin [3]
CC(=O)N[C@@H](CS)C(=O)NCCC[Si](C)(C)C [Eample 1, (R)-2-acetamido-3-mercapto-N-(3-(trimethylsilyl)propyl)propanamide]	7.49 µM	6.703 µM	29.67 µM	26.70 µM	21.6 µM	18.8 µM	27.13 µM	34.20 µM	10.04 µM	2.162 µM
CC(=O)N[C@@H](CS)C(=O)NC[Si](C)(C)C [Example 2, (R)-2-acetamido-3-mercapto-N-((trimethylsilyl)methyl)propanamide]	49.42 µM	34.55 µM	269.0 µM		132 µM	136 µM	210.70 µM		56.64 µM	14.68 µM
CC(=O)N[C@@H](CS)C(=O)NC[Si](C)(C)c1ccccc1 [Example 3, (R)-2-acetamido-N-((dimethyl(phenyl)silyl)methyl)-3-mercaptopropanamide]	8.553 µM	9.479 µM	39.29 µM	30.63 µM	28.1 µM	24.3 µM	35.69 µM	37.88 µM	11.21 µM	3.799 µM
CC(=O)N[C@@H](CS)C(=O)O [N-Acetyl-L-Cysteine, reference compound]	129.70 µM		639.30 µM	925.2 µM	277 µM		499.10 µM	454.10 µM		

Reference: patent US20090306015A1, “PHARMACEUTICAL COMPOSITIONS AND METHODS OF USE OF HIGHLY LIPOPHILIC SULFHYDRYL COMPOUNDS” (Silamed, Inc., priority 2005, published 2009)
